The results in this text go back to EP0729465B1, “PYRONE DERIVATIVES AS PROTEASE INHIBITORS AND ANTIVIRAL AGENTS” (PARKE, DAVIS & COMPANY, priority 1993, dated 1995).

≈ marks a conversion by molar mass, not a printed value. Where two headings read alike, the source gives them in different places.

The subject of one experiment is HIV-1iiib. Put plainly: Anti-HIV-1 activity, acute infection of H9 cells. The class given is cell-based. To be noted: Human immunodeficiency virus 1; H9 cell line infected with HIV-1iiib; reverse transcriptase assay at 4 and 7 days post infection; read-out: Concentration for 50% Protection. Here is the method:
Using the general methods of Pauwels et al., (J. Virol. Methods, 16, 171-185, 1987) and Mann et al. (AIDS Research and Human Retroviruses, 253-255, 1989) anti-viral assays of acute HIV-1 infection were performed in the H9 cell line. Cultures were batch infected in 1 ml of RPM1 1640 media/10% fetal calf serum containing 10^7 cells and 10^5 infectious doses of HIV-1iiib for an effective multiplicity of infection of 0.01. After 2 hours of viral absorption, cells were washed once and plated in 96-well microtiter plates at a density of 10^4 cells per well. Test compounds were added to produce the desired concentration of drug and 0.2% DMSO in a final volume of 200 µl. Uninfected parallel cultures were maintained for XTT cytotoxicity assay at 7 days post infection. Cultures were tested for viral replication by reverse transcriptase assay at 4 and 7 days post infection.

A further experiment has as its target T1, HIV-I Protease (Human immunodeficiency virus type 1 group M subtype B, UniProt P04585).
T1 construct: HIV-I Protease: The enzyme is obtained from Bachem Bioscience Inc; purchased Bachem Bioscience Inc
Description: HIV protease inhibition (hydrolysis of undecapeptide substrate, HPLC readout). The class given is biochemical. Particulars: read-out: 50% Inhibition Concentration (Averaged). Here is the method: • DTT Buffer: 1.0 mM dithiothreitol (DTT) was prepared fresh daily in 0.1% polyethylene glycol (mw 8000) 80 mM NaOAc, 160 mM NaCl, 1.0 mM EDTA, and brought to pH 4.7 with HCl. • HIV-I Protease: The enzyme is obtained from Bachem Bioscience Inc. The undiluted enzyme is thawed from -80 °C and diluted 50-fold with DTT buffer. The solution is always kept at 0 °C on ice water and used in the experiment within 20 minutes after thawing. • Enzyme Substrate: Substrate III from Bachem Bioscience Inc. is the undecapeptide H-His-Lys-Ala-Arg-Val-Leu-p-Nitrophenylalanine-Glu-Ala-Norleucine-ser-NH2 (> 97 % purity). A 200. µM stock solution in DTT buffer is prepared and stored on ice. Substrate solution is prepared fresh daily. • Test Compound: 10 mM inhibitor (I) in dimethyl sulfoxide (DMSO) is diluted to 200 µM with DTT buffer. From the 200 µM stock solution is made a 10 µM stock solution with 2% DMSO in DTT buffer. The two inhibitor solutions are used to make final [I] = 100, 50, 20, 10, 5, 2, 1, 0.5 and 0 µM with 2% DMSO in DTT buffer in each reaction well (total inhibitor volume of 50 µl).
To each reaction well is added 20 µl of substrate (final concentration of 40 µM), 50 µl of inhibitor (at a concentration such that final dilution will produce the test concentration) and 20 µl of DTT buffer. The reaction plate (96 wells) is incubated at 37 °C for at least 5 minutes.
10 µl of the diluted protease is added to the reaction well while the reaction plate is shaking. Once shaken for 10 seconds, the plate is returned to the heating block at 37 °C. (Final reaction volume = 100 µl.)
The reaction is incubated for 5 minutes at 37 °C. The reaction is stopped by placing the reaction plate on the shaker and adding 20 µl of 10% trifluoroacetic acid (TFA) and shaking for 10 seconds. The amount of proteolysis is then determined by separation of noncleaved substrate and two cleaved products with reverse-phase HPLC, while measuring absorbance at 220 nm to determine the relative peak areas of the three components. The relative peak areas are used to calculate % conversion to product as a function of inhibitor concentration. The data is plotted as % Control (the ratio of % conversion in the presence and absence of inhibitor x 100) versus inhibitor concentration and fit with the equation Y= 100/1+(X/IC50)^A, where IC50 is the inhibitor concentration at 50% inhibition and A is the slope of the inhibition curve.

Experiment [1] relates to Streptococcus pneumonia 5V-1. Put plainly: Antibacterial activity, microtitration dilution method (MIC). The class given is cell-based. From the text: (§1) The compounds of the invention display antibacterial activity when tested by the microtitration dilution method as described in Heifetz, et al., Antimicr. Agents. & Chemoth. 6:124 (1974) which is incorporated herein by reference.
(§2) By use of the above referenced method, the following minimum inhibitory concentration values (MICs in µg/mL) were obtained for representative compounds of the invention vs. clinically relevant gram positive pathogens which have become highly resistant to conventional therapy in recent years.

For experiment [2], the system named is Streptococcus pyogenes C203. Described as above. The class given is cell-based.
Description: as §1, §2

The subject of experiment [3] is Staphylococcus aureus UC-76. The experiment is described as above. The class given is cell-based.
Description: as §1, §2

The subject of experiment [4] is Staphylococcus aureus H228. The experiment is described as above. It is filed as cell-based.
Description: as §1, §2

The subject of experiment [5] is Enterococcus foecalis MGH2. The description is as above. The class given is cell-based.
Description: as §1, §2

Setting [6] is: 40 µM substrate, pH 4.7, 37 °C, 5 minutes.
The mark [7] stands for this setting: read-out: minimum inhibitory concentration (MIC).

Take `O=c1oc(-c2ccc(OCc3ccccc3)cc2)cc(O)c1SCCc1ccccc1` [Example 26, 4-Hydroxy-3-[(2-phenylethyl)thio]-6-[4-(phenylmethoxy)phenyl] 2-2H-pyran-2-one]: in the experiment with HIV-1iiib, the EC50 stood at 17000 nM. Besides, the IC50 on HIV-I Protease (setting [6]) was 330 nM.
Regarding `CC(C)c1ccccc1Sc1c(O)cc(-c2ccc(OCc3cccnc3)cc2)oc1=O` [Example 157, 4-Hydroxy-3-[(2-isopropylphenyl)thio]-6-[4-(pyridin-3-ylmethoxy)phenyl]-2H-pyran-2-one], the EC50 with HIV-1iiib is 650 nM. The IC50 on HIV-I Protease (setting [6]) worked out at 68 nM.
As to “3-[1-(Cyclohexylthio)-3-methylbutyl]-4-hydroxy-6-phenyl-2H-pyran-2-one [Example 128]”, the “minimum inhibitory concentration (MIC)” value stood at 25 µg/mL in experiment [1]; 25 µg/mL in experiment [2]; 12.5 µg/mL in experiment [3]; 12.5 µg/mL in experiment [4]; 25 µg/mL in experiment [5].
For `CC(C)(C)CC(SC1CCCCC1)c1c(O)cc(-c2ccccc2)oc1=O` (racemic) [Example 92, 3-[1-(Cyclohexylthio)-3,3-dimethylbutyl]-4-hydroxy-6-phenyl-2H-pyran-2-one], the MIC was determined as 50 µg/mL (≈ 129 µM) in experiment [1] (Streptococcus pneumoniae, 5V1, read-out: minimum inhibitory concentration (MIC)); 50 µg/mL (≈ 129 µM) in experiment [2] (setting [7]); 25 µg/mL (≈ 64.7 µM) in experiment [3] (UC76, read-out: minimum inhibitory concentration (MIC)); 25 µg/mL (≈ 64.7 µM) in experiment [4] (setting [7]); 100 µg/mL (≈ 259 µM) in experiment [5] (setting [7]).
For `O=c1oc(-c2ccc3c(c2)OCCO3)cc(O)c1SCc1ccccc1` [Example 107, 6-(2,3-Dihydro-1,4-benzodioxin-6-yl)-4-hydroxy-3-[(phenylmethyl)thio]-2H-pyran-2-one], the EC50 in the experiment with HIV-1iiib was determined as 15000 nM. In addition, on HIV-I Protease, the IC50 stood at 480 nM.
Regarding `O=c1oc(-c2ccccc2)cc(O)c1C(SC1CCCC1)C1CCCC1` (racemic) [Example 151, 3-[Cyclopentyl(cyclopentylthio)methyl]-4-hydroxy-6-phenyl-2H-pyran-2-one], in the experiment on HIV-1iiib, the EC50 was 14000 nM. The IC50 at HIV-I Protease (setting [6]) was 230 nM.
